Results reported in patent US20200377885A1, “COMPOSITIONS AND METHODS FOR THE GENERATION OF NEURONS AND USES THEREOF” (Washington University, priority 2017, published 2020).
“Also recorded” adds a separate entry of the source.

Key:
HD-MSNs [1] = experiment: Spontaneous cell death of HD-MSNs by SYTOX green dead-cell staining; format: cell-based, human; settings: 0.5 μM added at 30 days post induction, assessed at PID 35, vs DMSO
Experimental: (§1) In addition, Hoechst 33342 solution (Thermo Fisher Scientific) was added as a counterstain to label all nuclei at a final concentration of 1 μg/ml in culture media. Samples were incubated for at least 10 minutes in 37° C. Images were captured using a Leica DMI 400B inverted microscope with Leica Application Suite (LAS) Advanced Fluorescence. Three images were taken from random areas of each coverslip for at least three biological replicates per experiment. Quantification performed by counting number of SYTOX-positive cells over total Hoechst signal.
(§2) The ATM-Kinase inhibitor KU-60019 was obtained from Abcam (ab144817), solubilized in DMSO and directly added to the cell culture media for a final concentration of 0.5 μM at 30 days post miR-9/9*-124 induction, then cell death was assessed by SYTOX at PID 35. Controls were treated with the same volume of DMSO but no drug. At day 35, cells treated with DMSO or KU-60019 also were treated with 1 mM of H2O2 for three hours. SYTOX green/Hoechst stain was added as already described and imaged for scoring.

HD-MSNs [2] = experiment: H2O2-induced oxidative stress cell death of HD-MSNs (SYTOX green/Hoechst); format: cell-based, human; settings: 0.5 μM, 1 mM H2O2 for three hours at day 35, vs DMSO
Experimental: as §1, §2

ATM = ATM (Homo sapiens, UniProt Q13315); settings: earlier findings; cited from earlier work
Chain of ATM (Q13315 whole entry, species assumed): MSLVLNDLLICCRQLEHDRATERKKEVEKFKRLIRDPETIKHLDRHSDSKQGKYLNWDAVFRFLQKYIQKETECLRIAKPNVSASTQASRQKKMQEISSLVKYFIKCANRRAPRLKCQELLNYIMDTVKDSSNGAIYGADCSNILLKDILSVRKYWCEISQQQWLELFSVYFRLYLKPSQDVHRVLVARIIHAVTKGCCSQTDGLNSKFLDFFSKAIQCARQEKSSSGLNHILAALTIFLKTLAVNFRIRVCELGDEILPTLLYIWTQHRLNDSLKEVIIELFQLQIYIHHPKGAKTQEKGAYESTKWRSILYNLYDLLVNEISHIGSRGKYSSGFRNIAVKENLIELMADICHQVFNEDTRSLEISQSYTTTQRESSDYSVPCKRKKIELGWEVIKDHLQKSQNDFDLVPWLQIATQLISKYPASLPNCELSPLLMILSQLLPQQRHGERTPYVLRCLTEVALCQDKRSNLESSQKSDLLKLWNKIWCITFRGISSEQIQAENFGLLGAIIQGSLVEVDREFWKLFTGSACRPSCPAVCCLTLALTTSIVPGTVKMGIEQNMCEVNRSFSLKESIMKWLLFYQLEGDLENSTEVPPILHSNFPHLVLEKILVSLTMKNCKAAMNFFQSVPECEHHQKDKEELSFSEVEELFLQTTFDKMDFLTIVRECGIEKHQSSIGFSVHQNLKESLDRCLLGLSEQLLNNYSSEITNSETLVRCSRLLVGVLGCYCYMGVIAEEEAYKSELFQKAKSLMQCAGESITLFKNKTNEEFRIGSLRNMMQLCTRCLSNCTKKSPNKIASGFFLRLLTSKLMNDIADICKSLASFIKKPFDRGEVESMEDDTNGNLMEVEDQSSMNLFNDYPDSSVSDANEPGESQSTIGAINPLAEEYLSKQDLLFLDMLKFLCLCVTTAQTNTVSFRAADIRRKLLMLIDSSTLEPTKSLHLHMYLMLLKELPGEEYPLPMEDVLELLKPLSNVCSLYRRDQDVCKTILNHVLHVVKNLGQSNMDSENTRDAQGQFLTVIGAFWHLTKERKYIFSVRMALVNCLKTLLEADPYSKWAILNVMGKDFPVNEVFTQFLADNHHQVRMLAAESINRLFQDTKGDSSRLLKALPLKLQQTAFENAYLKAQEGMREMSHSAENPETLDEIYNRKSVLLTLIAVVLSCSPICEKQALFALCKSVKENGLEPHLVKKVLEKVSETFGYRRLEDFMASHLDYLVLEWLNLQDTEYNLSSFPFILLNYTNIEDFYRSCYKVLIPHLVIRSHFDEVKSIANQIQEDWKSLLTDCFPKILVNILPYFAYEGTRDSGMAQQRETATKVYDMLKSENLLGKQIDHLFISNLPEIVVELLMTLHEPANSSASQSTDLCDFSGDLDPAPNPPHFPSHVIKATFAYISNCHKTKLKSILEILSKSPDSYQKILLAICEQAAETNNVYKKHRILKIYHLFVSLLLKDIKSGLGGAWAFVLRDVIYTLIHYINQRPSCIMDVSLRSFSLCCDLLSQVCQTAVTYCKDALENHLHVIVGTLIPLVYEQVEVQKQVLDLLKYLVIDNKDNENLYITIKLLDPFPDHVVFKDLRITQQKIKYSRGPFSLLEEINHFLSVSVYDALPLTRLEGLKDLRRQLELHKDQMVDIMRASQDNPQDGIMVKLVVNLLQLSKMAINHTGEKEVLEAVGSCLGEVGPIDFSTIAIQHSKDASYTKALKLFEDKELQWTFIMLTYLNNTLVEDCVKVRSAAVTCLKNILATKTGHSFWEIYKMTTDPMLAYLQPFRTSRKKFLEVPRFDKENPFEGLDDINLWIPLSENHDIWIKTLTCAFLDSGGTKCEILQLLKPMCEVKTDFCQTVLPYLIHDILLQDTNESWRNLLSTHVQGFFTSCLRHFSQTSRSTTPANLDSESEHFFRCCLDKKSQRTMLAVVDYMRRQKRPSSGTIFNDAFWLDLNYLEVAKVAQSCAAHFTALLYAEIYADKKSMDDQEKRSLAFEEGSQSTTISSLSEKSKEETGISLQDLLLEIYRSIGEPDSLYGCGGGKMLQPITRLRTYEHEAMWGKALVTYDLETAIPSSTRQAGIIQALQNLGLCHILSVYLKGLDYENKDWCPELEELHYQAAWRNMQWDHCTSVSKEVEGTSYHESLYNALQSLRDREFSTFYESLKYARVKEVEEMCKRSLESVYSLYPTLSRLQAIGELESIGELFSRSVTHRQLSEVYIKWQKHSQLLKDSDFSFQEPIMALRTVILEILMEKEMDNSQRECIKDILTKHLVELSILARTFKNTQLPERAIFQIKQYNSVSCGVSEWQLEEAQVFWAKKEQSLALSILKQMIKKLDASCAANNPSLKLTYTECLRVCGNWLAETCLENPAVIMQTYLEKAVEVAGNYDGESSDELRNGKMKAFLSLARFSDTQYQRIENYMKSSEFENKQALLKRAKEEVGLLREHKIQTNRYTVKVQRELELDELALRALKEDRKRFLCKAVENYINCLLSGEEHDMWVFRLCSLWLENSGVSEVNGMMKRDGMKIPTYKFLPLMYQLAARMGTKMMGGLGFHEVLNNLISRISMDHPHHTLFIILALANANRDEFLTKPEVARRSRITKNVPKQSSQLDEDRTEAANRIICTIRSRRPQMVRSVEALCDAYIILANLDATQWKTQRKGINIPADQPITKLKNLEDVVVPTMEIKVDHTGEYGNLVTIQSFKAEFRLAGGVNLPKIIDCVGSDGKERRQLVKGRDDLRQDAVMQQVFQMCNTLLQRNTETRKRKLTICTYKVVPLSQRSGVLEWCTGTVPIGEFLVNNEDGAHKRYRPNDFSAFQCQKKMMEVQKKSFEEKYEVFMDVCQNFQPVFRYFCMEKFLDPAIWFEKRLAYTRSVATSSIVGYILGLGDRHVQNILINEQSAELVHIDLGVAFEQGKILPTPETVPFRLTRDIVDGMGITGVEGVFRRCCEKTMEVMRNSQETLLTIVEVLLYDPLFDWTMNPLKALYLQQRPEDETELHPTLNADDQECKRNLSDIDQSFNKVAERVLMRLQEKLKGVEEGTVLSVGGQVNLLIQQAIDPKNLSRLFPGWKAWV

[3] = system: GFP-74Q-expressing HEF cells; experiment: Inclusion body formation in GFP-74Q-expressing HEFs after proteasome inhibition; format: cell-based, human; settings: 5 μM, 24 hours later, vs DMSO
From the text: Because the findings contrasted with previous studies that report the lack of mHTT aggregates in iPSC-derived neurons from HD patients, it was decided to directly test if altering the cellular state of adult HD fibroblasts to an embryonic-like stage, a process that effectively erases aging markers, would affect the aggregation propensity of mHTT in HD-MSNs. HD-iPSCs were derived from adult HD fibroblasts and these stem cells were differentiated back into fibroblasts using a method for generating human embryonic fibroblasts (HEFs) (see e.g., FIG. 26A and FIG. 27A). […] HD.40-HEFs expressed fibroblast markers vimentin and fibronectin (see e.g., FIG. 26B). […] Upon direct conversion of HD.40-HEFs to MSNs (human embryonic MSNs, heMSNs), little to no aggregated mHTT was detectable in HD-heMSNs at PID 21 (see e.g., FIG. FIGS. 24B and 24C). […] It was then decided to investigate differences in mHTT aggregation propensity to elucidate the contribution of aging to protein aggregation in HD. […] To directly test if proteasome activity was preventing the formation of inclusions in HEFs, GFP-74Q-expressing HEF cells were treated with the proteasome inhibitor lactacystin, and assessed the presence of inclusions 24 hours later. […]

SMILES | levels of spontaneous cell death (SYTOX-positive cells over Hoechst) (HD-MSNs [1]) | levels of stress-induced cell death (H2O2-induced oxidative stress) (HD-MSNs [2]) | mHTT-induced cell death (ATM) | number of cells bearing inclusions (IBs) [3] | number of cells bearing inclusions (IBs) ([3]; listed as Lactacystin)
C[C@@H]1CN(CC(=O)Nc2ccc3c(c2)Cc2cccc(-c4cc(=O)cc(N5CCOCC5)o4)c2S3)C[C@H](C)O1 [KU60019] | significantly reduced; also recorded: reduces cell death levels | significantly reduced; also recorded: protects HD-MSNs against H2O2-induced oxidative stress | reduce mHTT-induced cell death | – | –
CC(=O)N[C@@H](CSC(=O)[C@]1([C@@H](O)C(C)C)NC(=O)[C@H](C)[C@@H]1O)C(=O)O [lactacystin] | – | – | – | induces IBs | significantly increased
